Reference: ChEMBL document CHEMBL3244122, “Symbiotic approach to drug design: antihypertensive beta-adrenergic blocking agents” (J Med Chem, 1979)

Assays:
Rattus norvegicus [1] = experiment: Antihypertensive activity in spontaneously hypertensive Wistar-Okamoto rat assessed as duration of action at 20 mg/kg, po; format: functional
Canis familiaris [2] = experiment: Vasodilatory activity in anesthetized dog assessed as increase in iliac blood flow […] ia; format: functional, Canis lupus familiaris, Artery
Rattus norvegicus [3] = experiment: Antihypertensive activity in spontaneously hypertensive Wistar-Okamoto rat assessed as maximal fall in mean arterial pressure at 20 mg/kg, po; format: functional, Artery
Canis familiaris [4] = experiment: In vivo beta-adrenergic receptor blockade in iv dosed anesthetized dog assessed as inhibition of isoproterenol-induced tachycardia; format: functional; conditions: Canis lupus familiaris
Canis familiaris [5] = experiment: Vasodilatory activity in anesthetized dog assessed as increase in iliac blood flow […] measured after 2000 ug/kg, iv beta-adrenergic receptor blocker timolol administration; format: functional, Canis lupus familiaris, Artery
Rattus norvegicus [6] = experiment: Antihypertensive activity in spontaneously hypertensive Wistar-Okamoto rat assessed as maximal fall in mean arterial pressure at 5 mg/kg, po; format: functional, Artery
Canis familiaris [7] = experiment: In vivo beta-adrenergic receptor blockade in iv dosed anesthetized dog assessed as inhibition of isoproterenol-induced hypotension; format: functional; conditions: Canis lupus familiaris
Canis familiaris [8] = experiment: Vasodilatory activity in anesthetized dog assessed as increase in iliac blood flow […] measured after 320 ug/kg, iv beta-adrenergic receptor blocker timolol administration; format: functional, Canis lupus familiaris, Artery
Rattus norvegicus [9] = experiment: Antihypertensive activity in spontaneously hypertensive Wistar-Okamoto rat assessed as duration of action at 5 mg/kg, po; format: functional
Rattus norvegicus [10] = experiment: Antihypertensive activity in spontaneously hypertensive Wistar-Okamoto rat assessed as duration of action at 1.25 mg/kg, po; format: functional
Rattus norvegicus [11] = experiment: Antihypertensive activity in spontaneously hypertensive Wistar-Okamoto rat assessed as maximal fall in mean arterial pressure at 1.25 mg/kg, po; format: functional, Artery
Canis familiaris [12] = experiment: Vasodilatory activity in anesthetized dog assessed as increase in iliac blood flow […] measured after 800 ug/kg, iv beta-adrenergic receptor blocker timolol administration; format: functional, Canis lupus familiaris, Artery
Rattus norvegicus [13] = experiment: Antihypertensive activity in po dosed spontaneously hypertensive Wistar-Okamoto rat assessed as maximal fall in mean arterial pressure; format: functional, organism-based; conditions: Artery
Oryctolagus cuniculus = experiment: Toxicity in rabbit assessed as teratogenicity measured after high drug dose administration; format: organism-based; conditions: in vivo
Rattus norvegicus [14] = experiment: Antihypertensive activity in spontaneously hypertensive Wistar-Okamoto rat assessed as maximal fall in mean arterial pressure at 5 mg/kg, ip; format: functional, Artery; conditions: route intraperitoneal
Rattus norvegicus [15] = experiment: Antihypertensive activity in spontaneously hypertensive Wistar-Okamoto rat assessed as maximal fall in mean arterial pressure at 20 mg/kg, ip; format: functional, Artery; conditions: route intraperitoneal
Rattus norvegicus [16] = experiment: Antihypertensive activity in spontaneously hypertensive Wistar-Okamoto rat assessed as duration of action at 20 mg/kg, ip; format: functional; conditions: route intraperitoneal
Rattus norvegicus [17] = experiment: Antihypertensive activity in spontaneously hypertensive Wistar-Okamoto rat assessed as duration of action at 5 mg/kg, ip; format: functional; conditions: route intraperitoneal
Canis familiaris [18] = experiment: Vasodilatory activity in anesthetized dog assessed as increase in iliac blood flow at 800 mg, ia; format: functional, Canis lupus familiaris, Artery
Canis familiaris [19] = experiment: Vasodilatory activity in anesthetized dog assessed as increase in iliac blood flow at 800 mg, ia measured after 320 ug/kg, iv beta-adrenergic receptor blocker timolol administration; format: functional, Canis lupus familiaris, Artery
Rattus norvegicus [20] = experiment: Antihypertensive activity in spontaneously hypertensive Wistar-Okamoto rat assessed as duration of action at 2 mg/kg, po; format: functional
Rattus norvegicus [21] = experiment: Antihypertensive activity in spontaneously hypertensive Wistar-Okamoto rat assessed as duration of action at 8 mg/kg, po; format: functional
Rattus norvegicus [22] = experiment: Antihypertensive activity in spontaneously hypertensive Wistar-Okamoto rat assessed as maximal fall in mean arterial pressure at 2 mg/kg, po; format: functional, Artery
Rattus norvegicus [23] = experiment: Antihypertensive activity in spontaneously hypertensive Wistar-Okamoto rat assessed as duration of action at 1 mg/kg, po; format: functional
Canis familiaris [24] = experiment: Vasodilatory activity in anesthetized dog assessed as increase in iliac blood flow at 800 mg, ia measured after 800 ug/kg, iv beta-adrenergic receptor blocker timolol administration; format: functional, Canis lupus familiaris, Artery
Rattus norvegicus [25] = experiment: Antihypertensive activity in spontaneously hypertensive Wistar-Okamoto rat assessed as maximal fall in mean arterial pressure at 8 mg/kg, po; format: functional, Artery
Rattus norvegicus [26] = experiment: Antihypertensive activity in spontaneously hypertensive Wistar-Okamoto rat assessed as maximal fall in mean arterial pressure at 1 mg/kg, po; format: functional, Artery

Row | SMILES | Time (Rattus norvegicus [1]) [h] | Activity (Canis familiaris [2]) [mL/min] | Activity (Rattus norvegicus [3]) [mmHg] | ED50 (Canis familiaris [4]) [mg/kg] | Activity (Canis familiaris [5]) [mL/min] | Activity (Rattus norvegicus [6]) [mmHg] | ED50 (Canis familiaris [7]) [mg/kg] | also measured
1 | Cc1cc(C)c(C#N)c(OCC(O)CNC(C)(C)C)n1 (centres undefined) | 8 | 33 | 21 | 0.0015 | 3 | 16 | 0.0026 | –
2 | Cc1ccc(C#N)c(OCC(O)CNC(C)(C)C)n1 (centres undefined) | – | 70 | – | < 0.01 | 43 | 5 | < 0.01 | –
3 | Cc1c[nH]c(-c2ccc(OCC(O)CNC(C)(C)C)cc2)n1 (centres undefined) | 8 | 60 | 41 | – | – | 19 | – | Activity (Canis familiaris [8]): 33 mL/min; Time (Rattus norvegicus [9]): <8 h; Time (Rattus norvegicus [10]): <6 h; Activity (Rattus norvegicus [11]): 24 mmHg
4 | CC(C)(C)NCC(O)COc1ncccc1S(C)(=O)=O (centres undefined) | – | 10 | 13 | – | – | 12 | – | Activity (Canis familiaris [12]): 8 mL/min
5 | CC(C)(C)NCC(O)COc1ncccc1C#N (centres undefined) | – | – | – | – | – | – | – | inhibition (Rattus norvegicus [13]): Dose-dependent effect; Activity (Oryctolagus cuniculus): Toxic
6 | Cc1cc(OCC(O)CNC(C)(C)C)cc(C)c1-c1ncc(C(F)(F)F)[nH]1 (centres undefined) | 18 | 7 | 30 | – | – | 19 | – | Time (Rattus norvegicus [9]): 4 h
7 | CC(C)NCC(O)COc1ncccc1C#N (centres undefined) | 4 | 59 | 40 | 0.005 | 48 | – | 0.03 | Activity (Rattus norvegicus [14]): 26 mmHg; Activity (Rattus norvegicus [15]): 59 mmHg; Time (Rattus norvegicus [16]): 8 h; Time (Rattus norvegicus [17]): 2 h
8 | CC(C)(C)NCC(O)COc1cc(C#N)ccn1 (centres undefined) | 4 | 35 | 55 | 0.03 | – | 30 | > 0.03 | Time (Rattus norvegicus [9]): 2 h; Activity (Canis familiaris [12]): 18 mL/min; Activity (Rattus norvegicus [11]): 15 mmHg
9 | CC(C)(C)NCC(O)COc1ccc(-c2ncc(C(F)(F)F)[nH]2)cn1 (centres undefined) | >7 | 103 | – | 0.0025 | – | – | 0.058 | Activity (Rattus norvegicus [15]): 40 mmHg; Activity (Canis familiaris [12]): 38 mL/min
10 | CN(C)CCOc1ncccc1C#N | – | 100 | – | – | 72 | – | – | Activity (Rattus norvegicus [15]): 49 mmHg; Time (Rattus norvegicus [16]): 1 h
11 | CC(C)(C)NCC(O)COc1ccccn1 (centres undefined) | – | – | 33 | 0.01 | 30 | 10 | 0.07 | –
12 | FC(F)(F)c1cnc(-c2cccnc2)[nH]1 | – | – | – | – | – | – | – | Activity (Canis familiaris [18]): 93 mL/min; Activity (Canis familiaris [19]): 99 mL/min; Time (Rattus norvegicus [20]): 6 h; Time (Rattus norvegicus [21]): >6 h; Activity (Rattus norvegicus [22]): 39 mmHg; Time (Rattus norvegicus [23]): 2 h; Activity (Canis familiaris [24]): 76 mL/min; Activity (Rattus norvegicus [25]): 48 mmHg; Activity (Rattus norvegicus [26]): 21 mmHg
